Measured values: patent US20240252488A1 (KOREA RESEARCH INSTITUTE OF CHEMICAL TECHNOLOGY, priority 2020, published 2024)

What was measured:
MLKL [1] = target: T1, MLKL (Homo sapiens, UniProt Q8NB16); assay: Measurement of binding affinity with MLKL receptor (competitive binding assay, Kd); set-up: made in house; host or cells: HEK 293 cell line (T7 phage in E. coli BL21-derived host is also described)
T1 sequence (Q8NB16 1-471): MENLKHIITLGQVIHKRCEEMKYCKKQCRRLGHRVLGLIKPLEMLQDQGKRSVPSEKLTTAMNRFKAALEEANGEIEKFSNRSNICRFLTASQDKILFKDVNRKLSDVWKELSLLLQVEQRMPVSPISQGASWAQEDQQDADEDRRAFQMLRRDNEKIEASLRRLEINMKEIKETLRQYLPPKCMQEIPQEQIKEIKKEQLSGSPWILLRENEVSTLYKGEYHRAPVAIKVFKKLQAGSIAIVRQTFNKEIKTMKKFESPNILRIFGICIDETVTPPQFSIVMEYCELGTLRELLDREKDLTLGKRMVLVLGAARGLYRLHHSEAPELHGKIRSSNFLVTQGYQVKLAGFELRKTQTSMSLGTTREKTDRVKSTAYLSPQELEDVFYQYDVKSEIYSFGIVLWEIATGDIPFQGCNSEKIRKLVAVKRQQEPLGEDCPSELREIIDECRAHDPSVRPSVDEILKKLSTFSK
How it was run: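 qPCR of MLKL eluted from liganded beads served as the read-out, from which Kd was derived. The protein was made in HEK 293 cells with a DNA tag, and test compounds competed with the bead-bound ligand at 0.9% final DMSO.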

FADD−/− Jurkat cells = assay: Necroptosis inhibition assay, TNF-α-induced necroptosis (CellTiter-Glo 2.0); format: cell-based, human; settings: TNF-α 15 ng/mL, FADD−/− Jurkat cells; for Necroptosis inhibition assay (Rescue %) 1 μM: compound 1 μM; for Necroptosis inhibition assay (Rescue %) 10 μM: compound 10 μM
How it was run: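 Compound is added to cells at final concentrations of 0.1, 1 and 10 μM and left 30 minutes at room temperature. Necroptosis is induced with 15 ng/mL TNF-α, culture continues 20 to 24 hours at 37° C, and ATP-based luminescence reports viability.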

MLKL [2] = target: T1, MLKL; assay: MLKL degradation assay in HepG2 cell line (western blot); format: cell-based; set-up: endogenous in cells; host or cells: HepG2 or HaCaT; settings: cell line not given; for Degradation assay (Degradation %) 1 μM: compound 1 μM; for Degradation assay (Degradation %) 10 μM: compound 10 μM
How it was run: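 Chemiluminescent western blot signal reports remaining MLKL protein in HepG2 cells after 20-24 h treatment with compound at a final 1 or 10 μM. Equal protein (10-15 μg, BCA) is loaded per lane.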

SMILES	Kd (MLKL [1])	Degradation assay (Degradation %) 1 μM (MLKL [2])	Degradation assay (Degradation %) 10 μM (MLKL [2])	Necroptosis inhibition assay (Rescue %) 1 μM (FADD−/− Jurkat cells)	Necroptosis inhibition assay (Rescue %) 10 μM (FADD−/− Jurkat cells)
Nc1ncc(-c2cnn(C3CCN(CC4CCN(CC5CCN(C(=O)c6ccc(C(=O)NC7CCC(=O)NC7=O)cc6)CC5)CC4)CC3)c2)nc1C(=O)O[C@@H](C(=O)Nc1ccc(F)cc1)c1ccccc1 (stereo partly drawn) [TDH-539, (R)-2-((4-fluorophenyl)amino)-2-oxo-1-phenylethyl 3-amino-6-(1-(1-((1-((1-(4-((2,6-dioxopiperidin-3-yl)carbamoyl)benzoyl)piperidin-4-yl)methyl)piperidin-4-yl)methyl)piperidin-4-yl)-1H-pyrazol-4-yl)pyrazine-2-carboxylate]	0.68 nM	70.67%	89.04%	46.99%	30.33%
Cn1c(=O)n(C2CCC(=O)NC2=O)c2ccc(N3CCC(C(=O)N4CCN(CCCN5CCC(n6cc(-c7cnc(N)c(C(=O)O[C@@H](C(=O)Nc8ccc(F)cc8)c8ccccc8)n7)cn6)CC5)CC4)CC3)cc21 (stereo partly drawn) [TDH-540, (R)-2-((4-fluorophenyl)amino)-2-oxo-1-phenylethyl 3-amino-6-(1-(1-(3-(4-(1-(1-(2,6-dioxopiperidin-3-yl)-3-methyl-2-oxo-2,3-dihydro-1H-benzo[d]imidazol-5-yl)piperidine-4-carbonyl)piperazin-1-yl)propyl)piperidin-4-yl)-1H-pyrazol-4-yl)pyrazine-2-carboxylate]	0.37 nM	81.44%	56.99%	20.79%	17.37%
Nc1ncc(-c2cnn(C3CCN(CCOC4CCN(C(=O)C5CN(C6=CC(=O)N(C7CCC(=O)NC7=O)C6=O)C5)CC4)CC3)c2)nc1C(=O)O[C@@H](C(=O)Nc1ccc(F)cc1)c1ccccc1 (stereo partly drawn) [TDH-541, (R)-2-((4-fluorophenyl)amino)-2-oxo-1-phenylethyl 3-amino-6-(1-(1-(2-((1-(1-(1-(2,6-dioxopiperidin-3-yl)-2,5-dioxo-2,5-dihydro-1H-pyrrol-3-yl)azetidine-3-carbonyl)piperidin-4-yl)oxy)ethyl)piperidin-4-yl)-1H-pyrazol-4-yl)pyrazine-2-carboxylate]	0.34 nM	78.24%	69.17%	24.95%	24.58%
Nc1ncc(-c2cnn(C3CCN(CCCN4CCN(C(=O)c5cccc(C(=O)NC6CCC(=O)NC6=O)c5)CC4)CC3)c2)nc1C(=O)O[C@@H](C(=O)Nc1ccc(F)cc1)c1ccccc1 (stereo partly drawn) [TDH-542, (R)-2-((4-fluorophenyl)amino)-2-oxo-1-phenylethyl 3-amino-6-(1-(1-(3-(4-(3-((2,6-dioxopiperidin-3-yl)carbamoyl)benzoyl)piperazin-1-yl)propyl)piperidin-4-yl)-1H-pyrazol-4-yl)pyrazine-2-carboxylate]	0.53 nM	84.12%	72.45%	24.80%	29.40%
Nc1ncc(-c2cnn(C3CCN(C4CC5(CCN(CC6CCN(C(=O)c7cccc(C(=O)NC8CCC(=O)NC8=O)c7)CC6)CC5)C4)CC3)c2)nc1C(=O)O[C@@H](C(=O)Nc1ccc(F)cc1)c1ccccc1 (stereo partly drawn) [TDH-544, (R)-2-((4-fluorophenyl)amino)-2-oxo-1-phenylethyl 3-amino-6-(1-(1-(7-((1-(3-((2,6-dioxopiperidin-3-yl)carbamoyl)benzoyl)piperidin-4-yl)methyl)-7-azaspiro[3.5]nonan-2-yl)piperidin-4-yl)-1H-pyrazol-4-yl)pyrazine-2-carboxylate]	0.5 nM	69.45%	82.68%	35.33%	31.42%
Nc1ncc(-c2cnn(C3CCN(CC4CCN(CC5CCN(C(=O)c6cccc(C(=O)NC7CCC(=O)NC7=O)c6)CC5)CC4)CC3)c2)nc1C(=O)O[C@@H](C(=O)Nc1ccc(F)cc1)c1ccccc1 (stereo partly drawn) [TDH-546, (R)-2-((4-fluorophenyl)amino)-2-oxo-1-phenylethyl 3-amino-6-(1-(1-((1-((1-(3-((2,6-dioxopiperidin-3-yl)carbamoyl)benzoyl)piperidin-4-yl)methyl)piperidin-4-yl)methyl)piperidin-4-yl)-1H-pyrazol-4-yl)pyrazine-2-carboxylate]	0.4 nM	70.89%	81.41%	31.08%	28.77%
Nc1ncc(-c2cnn(C3CCN(CCC4CCN(C(=O)c5ccc6c(c5)CN(C5CCC(=O)NC5=O)C6=O)CC4)CC3)c2)nc1C(=O)O[C@@H](C(=O)Nc1ccc(F)cc1)c1ccccc1 (stereo partly drawn) [TDH-547, (R)-2-((4-fluorophenyl)amino)-2-oxo-1-phenylethyl 3-amino-6-(1-(1-(2-(1-(2-(2,6-dioxopiperidin-3-yl)-1-oxoisoindoline-5-carbonyl)piperidin-4-yl)ethyl)piperidin-4-yl)-1H-pyrazol-4-yl)pyrazine-2-carboxylate]	0.43 nM	93.36%	68.21%	35.18%	19.80%

These reach a lower Kd (MLKL [1]). Values come first.

Kd (MLKL [1])	Degradation assay (Degradation %) 1 μM (MLKL [2])	Degradation assay (Degradation %) 10 μM (MLKL [2])	SMILES	Necroptosis inhibition assay (Rescue %) 1 μM (FADD−/− Jurkat cells)	Necroptosis inhibition assay (Rescue %) 10 μM (FADD−/− Jurkat cells)
0.31 nM	66.34%	54.70%	Nc1ncc(-c2cnn(C3CCN(CCOC4CCN(C(=O)c5ccc(C(=O)NC6CCC(=O)NC6=O)cc5)CC4)CC3)c2)nc1C(=O)O[C@@H](C(=O)Nc1ccc(F)cc1)c1ccccc1 (stereo partly drawn) [TDH-538, (R)-2-((4-fluorophenyl)amino)-2-oxo-1-phenylethyl 3-amino-6-(1-(1-(2-((1-(4-((2,6-dioxopiperidin-3-yl)carbamoyl)benzoyl)piperidin-4-yl)oxy)ethyl)piperidin-4-yl)-1H-pyrazol-4-yl)pyrazine-2-carboxylate]	24.02%	21.52%
0.23 nM	76.24%	80.46%	Nc1ncc(-c2cnn(C3CCN(CCC4CCN(C(=O)c5cccc(C(=O)NC6CCC(=O)NC6=O)c5)CC4)CC3)c2)nc1C(=O)O[C@@H](C(=O)Nc1ccc(F)cc1)c1ccccc1 (stereo partly drawn) [TDH-543, (R)-2-((4-fluorophenyl)amino)-2-oxo-1-phenylethyl 3-amino-6-(1-(1-(2-(1-(3-((2,6-dioxopiperidin-3-yl)carbamoyl)benzoyl)piperidin-4-yl)ethyl)piperidin-4-yl)-1H-pyrazol-4-yl)pyrazine-2-carboxylate]	37.86%	26.19%
0.28 nM	65.64%	74.02%	Nc1ncc(-c2cnn(C3CCN(CCOC4CCN(C(=O)c5cccc(C(=O)NC6CCC(=O)NC6=O)c5)CC4)CC3)c2)nc1C(=O)O[C@@H](C(=O)Nc1ccc(F)cc1)c1ccccc1 (stereo partly drawn) [TDH-545, (R)-2-((4-fluorophenyl)amino)-2-oxo-1-phenylethyl 3-amino-6-(1-(1-(2-((1-(3-((2,6-dioxopiperidin-3-yl)carbamoyl)benzoyl)piperidin-4-yl)oxy)ethyl)piperidin-4-yl)-1H-pyrazol-4-yl)pyrazine-2-carboxylate]	32.16%	41.07%
0.19 nM	89.05%	85.68%	Nc1ncc(-c2cnn(C3CCN(C4CC5(CCN(CC6CCN(C(=O)c7ccc8c(c7)CN(C7CCC(=O)NC7=O)C8=O)CC6)CC5)C4)CC3)c2)nc1C(=O)O[C@@H](C(=O)Nc1ccc(F)cc1)c1ccccc1 (stereo partly drawn) [TDH-548, (R)-2-((4-fluorophenyl)amino)-2-oxo-1-phenylethyl 3-amino-6-(1-(1-(7-((1-(2-(2,6-dioxopiperidin-3-yl)-1-oxoisoindoline-5-carbonyl)piperidin-4-yl)methyl)-7-azaspiro[3.5]nonan-2-yl)piperidin-4-yl)-1H-pyrazol-4-yl)pyrazine-2-carboxylate]	64.86%	31.41%
